Experimental findings from publication PMC4278898 (PLoS ONE, 2014) are described below.

pIC50: −log10 of the molar value. Values joined by “and” are separate entries in the source; they are usually repeats but may differ in a detail not shown here. Equal values may be shown once. “Also recorded” adds a separate entry of the source. Read-outs that look alike come from different tables or passages of the source.

In series [1] the test system is HIV-1 BaL. The series can be described thus: Anti-HIV activity in infected TZM-bl cells (luciferase). Format: cell-based. The note with it: for anti-HIV activity compared with the vehicle control (HIV-1 BaL, TZM-bl): concentration not stated (range 0.01–100 µM).
For series [2], the system named is TZM-bl, HeLa, PBMC, and H9 cells. Put plainly: Cytotoxicity tests on TZM-bl, HeLa, PBMC and H9 cells (summary statements). It is filed as cell-based, human. The note with it: positive control AZT 60 µM.
Description: (§3) The in vitro cytotoxic effect of each of the flavonoids was determined by a resazurin fluorometric method (Cell Titer Blue Viability Assay, Promega Corp, Madison, WI), as described by O'Brien et al. [27]. TZM-bl and HeLa adherent cells were each separately seeded (1×10^5 cell/mL) into a 96 well plate (Greiner Bio-One North America, Inc Monroe, NC, USA). After 24 hours, their morphology was observed under an inverted microscope. The experimental natural compounds were then added to the cultured cells (n = 9) plates, and incubated for 24 hours. The cells were washed with pre-warmed PBS (Lonza Walkersville, Inc. Walkersville, MD) and the medium was replaced with medium pre-warmed to 37°C. Resazurin was added, and the cells were incubated for 3.5 hours. […] The cytotoxic effect of the three flavonoids on H9 and PBMC cells was determined using the same protocol.
Series [3] concerns TZM-bl cells. Put plainly: Cytotoxicity assay (resazurin fluorometric method), TZM-bl cells. It is filed as cell-based, human.
The test system of the next series is HeLa cells. The series can be described thus: Cytotoxicity assay (resazurin fluorometric method), HeLa cells. Format: cell-based, human. (In general: The colour change of resazurin is a common sign of viable cells or microbes.)
The next series has as its system PBMC cells. Put plainly: Cytotoxicity assay (resazurin fluorometric method), PBMC cells. It is filed as cell-based, human.
The test system of the next series is H9 cells. The series can be described thus: Cytotoxicity assay (resazurin fluorometric method), H9 cells. Format: cell-based, human.
The test system of series [4] is HIV-1 MN. The series can be described thus: Anti-HIV activity in H9 cells, HIV-1 MN (p24 ELISA). Format: cell-based. The note with it: for inhibition of infection / anti-HIV activity, H9 cells, HIV-1 MN: concentration not given. The method, then:
(§1) HIV-1 infection of H9 cells was performed as described by Gurgo et al. as follows: H9 cells were seeded at 1×10^5 cell/mL into a 24 well plate. […] After 48 hours of incubation, the supernatant was collected and frozen at −80°C. ELISA was performed to detect p24, and the cytotoxicity assay was done using the resazurin fluorometric method, as described previously.
(§2) The HIV-1 p24 Antigen ELISA 2.0 Kit (ZeptoMetrix Corporation, Bufalo, NY) was used to monitor and determine the titer of HIV-1-based lentiviral samples, as described by Gonçalves et al.. For each sample (n = 9), a 225 µL volume was treated with 25 µL of lysing buffer. An ELISA array plate was washed three times with 300 µL/well of wash buffer in a microplate washer (MultiWash III, TriContinent, Grass Valley, CA), and 200 µL/well of each treated samples was transferred to the plate. The plate was incubated at 37°C for 3 hours, then washed six times, incubated for 1 hour with 100 µL/well of HIV-1 p24 detector antibody, washed six more times, and incubated 30 min at room temperature with 100 µL/well of substrate. The reaction was stopped by addition of stop solution (100 µL/well). The absorbance was determined using a microplate reader (SpectraMax M5, Molecular Devices, Sunnyvale, CA) at 450 nm, and the samples were calibrated against the HIV-1 p24 standard curve, generated from a series of standards loaded on the same plate.
(In general: An ELISA detects its analyte on a solid surface through an enzyme-linked reagent.)

Series [5] deals with HIV-1 89.6. The series can be described thus: Anti-HIV activity in H9 cells, HIV-1 89.6 (p24 ELISA). Format: cell-based. The note with it: for inhibition of infection / anti-HIV activity, H9 cells, HIV-1 89.6: p24 ELISA, concentration not given. The method, then: as §1, §2
Series [6] has as its system HIV-1 MN. Put plainly: Anti-HIV activity in PBMC, HIV-1 MN (p24 ELISA). Format: cell-based. The note with it: for anti-HIV activity, PBMC cells, HIV-1 MN: concentration not given.
Series [7] deals with HIV-1 89.6. The series can be described thus: Anti-HIV activity in PBMC, HIV-1 89.6 (p24 ELISA). It is filed as cell-based. The following applies: for anti-HIV activity, PBMC cells, HIV-1 89.6: p24 ELISA, concentration not given; for pIC50: Human immunodeficiency virus 1, HIV-1 89.6, p24 ELISA. The method, then:
The viability of the cells was assessed by the resazurin fluometric method as describe previously. After incubation, the supernatant from each well was collected and stored at -80°C for performance of p24 ELISA.
as §2

A short description of series [8]: Cytotoxicity tests on TZM-bl, HeLa, PBMC and H9 cells (summary statements). The note with it: human, TZM-bl, HeLa, PBMC, H9; for viability at 24 h: at concentrations between 20 µM–60 µM, read-out: cell viability. It is filed as cell-based, human.
Description: as §3
For series [9], the system named is TZM-bl cells. The series can be described thus: Cell viability in the dual-chamber model (resazurin). The note with it: resazurin method.
Description: The in vitro cytotoxic effect of each of the flavonoids was determined by a resazurin fluorometric method (Cell Titer Blue Viability Assay, Promega Corp, Madison, WI), as described by O'Brien et al. [27]. TZM-bl and HeLa adherent cells were each separately seeded (1×10^5 cell/mL) into a 96 well plate (Greiner Bio-One North America, Inc Monroe, NC, USA). After 24 hours, their morphology was observed under an inverted microscope. The experimental natural compounds were then added to the cultured cells (n = 9) plates, and incubated for 24 hours. The cells were washed with pre-warmed PBS (Lonza Walkersville, Inc. Walkersville, MD) and the medium was replaced with medium pre-warmed to 37°C. Resazurin was added, and the cells were incubated for 3.5 hours.
Transwell assay inserts with 8 µM diameter pores and 0.3 cm^2 of culture surface (Greiner Bio-One, Monroe, NC,) were positioned in the wells of a 24-well plate. Then 1×10^4 HeLa cells were seeded into each transwell insert/apical chamber (using DMEM with 10% FBS). […] To assess confluence, the Trans Epithelial Electric Resistance (TEER) (described by Arien et al. [33]) of each HeLa cell layer was measured with a Millicell-ERS Volt-Ohm Meter (Millipore, Bedford, MA) before and after flavonoids treatments. Cell layer confluence in the transwell inserts was measured daily, until the optimal TEER (>150 Ohm/cm^2) was reached on day 4. […]
Another series relates to HeLa cell layer. The series can be described thus: Trans Epithelial Electric Resistance (TEER) of HeLa cell layer in dual-chamber model. The following applies: dual-chamber transwell insert.
The test system of series [10] is HIV-1 BaL. The series can be described thus: Microbicide activity in the dual-chamber model (HeLa apical, TZM-bl basal; luciferase). The following applies: Human immunodeficiency virus 1, BAL.
Description: (§4) Transwell assay inserts with 8 µM diameter pores and 0.3 cm^2 of culture surface (Greiner Bio-One, Monroe, NC,) were positioned in the wells of a 24-well plate. Then 1×10^4 HeLa cells were seeded into each transwell insert/apical chamber (using DMEM with 10% FBS). TZM-bl cells (1×10^5) were seeded into the basal chambers below the inserts, and the plates were incubated at 37°C in humid air containing 5% CO2. To assess confluence, the Trans Epithelial Electric Resistance (TEER) (described by Arien et al. [33]) of each HeLa cell layer was measured with a Millicell-ERS Volt-Ohm Meter (Millipore, Bedford, MA) before and after flavonoids treatments. Cell layer confluence in the transwell inserts was measured daily, until the optimal TEER (>150 Ohm/cm^2) was reached on day 4. On day 4, the media in the basal chamber and the insert was replaced with new pre-warmed media. […] The plate was incubated at 37°C, in humid air containing 5% CO2.
The experiments were performed in triplicate and repeated three different times.
Setting [11] is: TZM-bl cells, 24 hours treatment, concentration that kills 50% of the cells.
The mark [12] stands for this setting: Human immunodeficiency virus 1, BAL, TZM-bl.
[13] abbreviates: Human immunodeficiency virus 1, H9.
Setting [14] is: Human immunodeficiency virus 1, H9 cells, HIV-1 MN, p24 ELISA, read-out: IC50.
Setting [15] is: Human immunodeficiency virus 1, H9 cells, HIV-1 89.6, p24 ELISA, read-out: IC50.
[16] abbreviates: Human immunodeficiency virus 1, PBMC cells, HIV-1 MN, p24 ELISA, read-out: IC50.

Description for HeLa cell layer: as §4

As a reminder, the inhibition is the drop in the measured response relative to a control, in per cent. For `Cc1cn([C@H]2C[C@H](N=[N+]=[N-])[C@@H](CO)O2)c(=O)[nH]c1=O` [AZT, Zidovudine, reference compound], the inhibition at 60 µM in the series on HIV-1 BaL [1] (Human immunodeficiency virus 1, BAL, TZM-bl, read-out: inhibition of HIV infection by positive control (HIV-1 BaL, TZM-bl)) was at least 90%. The “effect on cell growth” value in series [2] is listed as “did not affect the cell growth”.

A word on the pIC50: it is −log10 of the IC50, conventionally taken in molar units. In general, viability refers to a read-out of living cells in per cent, often relative to untreated cells. In the case of `O=c1c(O)c(-c2cc(O)c(O)c(O)c2)oc2cc(O)cc(O)c12` [Myricetin], the LD50 with TZM-bl cells [3] (setting [11]) is 1214.92 µM and 1214.72 µM; with HeLa cells (HeLa cells, 24 hours treatment), 804.94 µM; in the series on PBMC cells (PBMC cells), 1159.26 µM; in the series on H9 cells (H9 cells) it was 1059.09 µM. Further, the pIC50 with HIV-1 BaL [1] (setting [12]) was 4.69; in the series with HIV-1 MN [4] (setting [13]) it was 4.64; in the series on HIV-1 89.6 [5] (setting [13]), 5.75; with HIV-1 MN [6] (Human immunodeficiency virus 1, PBMC), 5.35; with HIV-1 BaL [10] (read-out: IC50, HIV-1 BaL infection in dual-chamber system) it was 4.71. For the same compound, the inhibition at 100 µM was above 87% in the series on HIV-1 BaL [1] (Human immunodeficiency virus 1, BAL, TZM-bl, read-out: inhibition of HIV-1 BaL infection in TZM-bl cells); 86% in the series with HIV-1 MN [6] (Human immunodeficiency virus 1, PBMC, read-out: inhibition of HIV-1 MN infection in PBMC cells); 85% in the series on HIV-1 89.6 [7] (Human immunodeficiency virus 1, PBMC, read-out: inhibition of HIV-1 89.6 infection in PBMC cells); above 88% with HIV-1 BaL [10] (read-out: inhibition of HIV-1 BaL infection in dual-chamber system). Also, the “anti-HIV activity greater compared to Pinocembrin, HIV-1 MN, H9” value in the series on HIV-1 MN [4] (H9 cells) is around 2.9 x. The “anti-HIV activity greater than that of Quercetin, HIV-1 MN, H9” value in the series with HIV-1 MN [4] (H9 cells) is recorded as “approximately 1.7 x”. Further, the “anti-HIV activity greater than for Pinocembrin, HIV-1 89.6, H9” value in the series on HIV-1 89.6 [5] (H9 cells) stood at 23.9 x. Moreover, the “anti-HIV activity greater than for Quercetin, HIV-1 89.6, H9” value in the series with HIV-1 89.6 [5] (H9 cells) is on record as 16.9 x. Moreover, the “x higher than Pinocembrin, HIV-1 89.6, PBMC” value in the series with HIV-1 89.6 [7] (PBMC cells) worked out at 16.4 x. The “x higher than Quercetin, HIV-1 89.6, PBMC” value with HIV-1 89.6 [7] (PBMC cells) amounted to 12.3 x. For the same compound, the “anti-HIV activity, PBMC cells, HIV-1 89.6” value in the series with HIV-1 89.6 [7] was “more than 80%”. Also, in [8] (PBMC and H9 cells, at 100 µM concentration, read-out: cell viability compared with the negative control (only cells)), the viability at 24 h, 100 µM was at least 85%. Moreover, the “cell viability in dual-chamber model versus negative control (only cells)” value in the series on TZM-bl cells [9] was “no statistically significant difference; also recorded: did not show a statistically significant difference on cell viability”. Besides, the “TEER of HeLa cell layer before and after flavonoid treatment” value in the series with HeLa cell layer was found to be 208 Ohm/cm^2.

With `O=C1C[C@@H](c2ccccc2)Oc2cc(O)cc(O)c21` [Pinocembrin], the LD50 in the series on TZM-bl cells [3] (human, 24 h) is recorded as 67.94 µM; with HeLa cells (human, 24 h), 99.52 µM; with PBMC cells (human, 24 h), 788.23 µM; in the series with H9 cells (human, 24 h) it was 805.76 µM. The negative logarithm of the IC50 (pIC50) is 3.46 in the series on HIV-1 BaL [1] (Human immunodeficiency virus 1, TZM-bl cells, HIV-1 BaL, MOI = 1, read-out: IC50); 4.17 with HIV-1 MN [4] (setting [14]); 4.37 in the series with HIV-1 89.6 [5] (setting [15]); 4.24 in the series on HIV-1 MN [6] (setting [16]); 4.27 in the series with HIV-1 89.6 [7] (PBMC cells). Besides, the “anti-HIV activity compared with the vehicle control (HIV-1 BaL, TZM-bl)” value in the series with HIV-1 BaL [1] worked out at 28%. Besides, the “inhibition of infection / anti-HIV activity, H9 cells, HIV-1 MN” value in the series with HIV-1 MN [4] (p24 ELISA) was at least 60%. Also, in the series on HIV-1 89.6 [5], the “inhibition of infection / anti-HIV activity, H9 cells, HIV-1 89.6” value was at least 60%. The “anti-HIV activity, PBMC cells, HIV-1 MN” value in the series with HIV-1 MN [6] (p24 ELISA) was determined as 67%. For the same compound, the “anti-HIV activity, PBMC cells, HIV-1 89.6” value in the series on HIV-1 89.6 [7] is reported as 51%. Also, the viability at 24 h in series [8] (PBMC and H9 cells) is at least 85%.

Consider `O=c1c(O)c(-c2ccc(O)c(O)c2)oc2cc(O)cc(O)c12` [Quercetin], for which the LD50 with TZM-bl cells [3] (setting [11]) is reported as 119.23 µM; with HeLa cells (HeLa cells, 24 hours treatment) it was 78.20 µM; with PBMC cells (PBMC cells), 813.57 µM; in the series with H9 cells (H9 cells), 905.76 µM. In addition, the pIC50 with HIV-1 BaL [1] (setting [12]) is 4.05; in the series on HIV-1 MN [4] (setting [14]), 4.41; with HIV-1 89.6 [5] (setting [15]), 4.53; with HIV-1 MN [6] (setting [16]), 4.50; in the series with HIV-1 89.6 [7] (PBMC cells), 4.41. The “anti-HIV activity compared with the vehicle control (HIV-1 BaL, TZM-bl)” value in the series on HIV-1 BaL [1] is given as 39%. The “inhibition of infection / anti-HIV activity, H9 cells, HIV-1 MN” value in the series on HIV-1 MN [4] (p24 ELISA) was at least 64%. Moreover, the “inhibition of infection / anti-HIV activity, H9 cells, HIV-1 89.6” value in the series on HIV-1 89.6 [5] is recorded as at least 64%. The “anti-HIV activity, PBMC cells, HIV-1 MN” value in the series on HIV-1 MN [6] (p24 ELISA) amounted to 45%. The “anti-HIV activity, PBMC cells, HIV-1 89.6” value in the series with HIV-1 89.6 [7] is reported as 59%. In addition, the viability at 24 h in series [8] is at least 85%.
